Reference: patent US20260183303A1, “PDK1 REGULATORY COMPOUND AND COMPOSITION CONTAINING THE SAME” (PROVIBIO CO., LTD., priority 2024, published 2026)

Legend:
[1] = test system: T cells isolated from mouse spleens; assay: T cell proliferation inhibition (CFSE flow cytometry, anti-CD3/anti-CD28 activation); format: cell-based, C57BL/6 mice; conditions: mouse spleen T cells, CD3/CD28 activated, cultured three days
In short: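 Splenic T cells from 7-week-old C57BL/6 mice were CFSE-labelled and seeded at 2×10^5/well. They were activated with anti-CD3/anti-CD28 ([…]) and treated with compound at […] in triplicate for 3 days at 37 °C. Proliferation was read by CFSE dilution on flow cytometry and expressed as % inhibition.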

[2] = test system: HCT-116 colon cancer cell lines; assay: Invasion Assay using Matrigel, HCT-116; format: cell-based, Human; conditions: HCT-116, Matrigel, 24 hours treatment, vs DMSO
Experimental: To evaluate the metastasis inhibitory efficacy of the compounds of the present invention on HCT-116 colon cancer cell lines, an Invasion Assay using Matrigel was performed to assess the cells' invasion ability.
First, Matrigel was thawed on ice in RPMI-1640 medium without FBS, then diluted with DMEM at a ratio of 1:20.
The diluted Matrigel mixture was applied to the upper chamber at 100 μl per well, and 750 μl of RPMI-1640 without FBS was added to the lower chamber.
The plates were then incubated at 37° C. for 1 hour to allow the Matrigel to solidify.
After coating, the Matrigel mixture in the upper chamber was removed using a pipette, and the chamber was washed with RPMI without FBS.
Human-derived colorectal cancer cell line HCT-116, obtained from the Korean Cell Bank, was cultured in RPMI-1640 medium containing 10% FBS. […]
After staining was complete, any remaining cells in the upper chamber were removed. Finally, the infiltrated cells were observed under a microscope, photographed, and the degree of infiltration was analyzed.

psoriasis-induced mice = assay: In vivo psoriasis model (Aldara cream, Imiquimod); design: species or system BALB/c mice
Experimental: To verify the therapeutic effect of the compound according to the present invention on psoriasis, a psoriasis animal model was established as follows, and the compound according to the present invention was administered to evaluate the alleviation of skin lesions and changes in immune cell patterns.
For the establishment of the psoriasis animal model, BALB/c mice (7 weeks old, female, 20 g) were purchased from HanabioTech Co., Ltd. and acclimatized to the rearing environment for one week.
Subsequently, the hair on the mouse back was shaved using a hair removal device for the first time, and then completely shaved using a depilatory cream (Nicrin Cream (80% thioglycolic acid, II Dong Pharmaceutical)) for the second time. […]
Body weights of mice in each group were measured on days 1, 4, and 8 after the start of injection and psoriasis induction. […]
To evaluate the therapeutic effect in a psoriasis-induced mouse model, the PASI (Psoriasis Area and Severity Index) score was measured.
The PASI score is based on three criteria: erythema, scaling, and skin thickness, each scored from 0 (none) to 4 (severe). […]
Observations were conducted daily at the same time, and the same observer visually assessed each criterion and recorded the scores, with the results presented in FIG. 13. […]
All samples were measured in duplicate, and the absorbance was measured at 450 nm using a microplate reader.

Molecule: 12-(4-Hydroxypiperazin-1-Yl)Dodecyl-N-(6-Aminopurazin-2-Yl)Carboxamide [Compound 10]
- Proliferation inhibition rate (%) ([1]; 10 nM): 100.00%
- Proliferation inhibition rate (%) ([1]; 100 nM): 100.00%
- Proliferation inhibition rate (%) ([1]; 1 μM): 100.00%
- Proliferation inhibition rate (%) ([1]; 10 μM): 100.00%
- Proliferation inhibition rate (%) ([1]; 30 μM): 100.00%
- Proliferation inhibition rate (%) ([1]; 50 μM): 100.00%
- number of infiltrated cells (invasion) [2]: reduction in the number of infiltrated cells

Molecule: Nc1nc(NC(=O)CCCCCCCCCCCCN2CCN(CCO)CC2)nc2nc[nH]c12 [Compound 15, 12-[4-(2-Hydroxyethyl)Piperazin-1-Yl]Dodecyl-N-(6-Aminopurine-2-Yl)Carboxamide]
- efficacy in improving dermatological symptoms (psoriasis-induced mice): excellent efficacy in improving dermatological symptoms
